Species on record: Rattus norvegicus
Experiment: DrugMatrix - Regimen: Daily Repeat
Type: toxicity, organism-based, Sprague-Dawley
Parameters: regimen Daily Repeat, gender Male, age 6-8 weeks
Conditions: in vivo, po, route oral GAVAGE, vehicle 100 % WATER; for ABSOLUTE BASOPHIL / ABSOLUTE EOSINOPHIL / ABSOLUTE LYMPHOCYTE / ABSOLUTE MONOCYTE / ABSOLUTE SEGMENTED NEUTROPHIL / BASOPHIL / EOSINOPHIL / ERYTHROCYTE COUNT / HEMATOCRIT / HEMOGLOBIN / LEUKOCYTE COUNT / LYMPHOCYTE / MEAN CORPUSCULAR HEMOGLOBIN / MEAN CORPUSCULAR HEMOGLOBIN CONCENTRATION / MEAN CORPUSCULAR VOLUME / MONOCYTE / NEUTROPHIL / NUCLEATED RED BLOOD CELLS / PLATELET COUNT: tissue Blood; for ALANINE AMINOTRANSFERASE / ALBUMIN / ALKALINE PHOSPHATASE / ASPARTATE AMINOTRANSFERASE / BLOOD UREA NITROGEN / CARBON DIOXIDE / CHLORIDE / CHOLESTEROL / CREATINE PHOSPHOKINASE / CREATININE / GLUCOSE / LACTATE DEHYDROGENASE / LIPASE / PHOSPHORUS / POTASSIUM / SODIUM / TOTAL BILIRUBIN / TOTAL PROTEIN / URIC ACID: tissue Plasma
[1] = 4 mg/kg, 72 h, dose level Low, time 3 day
[2] = 4 mg/kg, 120 h, dose level Low, time 5 day
[3] = 1100 mg/kg, 72 h, dose level High, time 3 day
[4] = 1100 mg/kg, 120 h, dose level High, time 5 day

## COc1ccnc(C[S+]([O-])c2nc3ccc(OC(F)F)cc3[nH]2)c1OC (configuration not stated) [PANTOPRAZOLE]
[1]
  ABSOLUTE BASOPHIL: 0 CELLS/uL
  ABSOLUTE EOSINOPHIL: 0 CELLS/uL
  ABSOLUTE LYMPHOCYTE: 12700.33 CELLS/uL
  ABSOLUTE MONOCYTE: 129 CELLS/uL
  ABSOLUTE SEGMENTED NEUTROPHIL: 970.67 CELLS/uL
  BASOPHIL: 0%
  EOSINOPHIL: 0%
  ERYTHROCYTE COUNT: 5.41 x10E6/uL
  HEMATOCRIT: 34.33%
  HEMOGLOBIN: 13.7 G/DL
  LEUKOCYTE COUNT: 13.8 x10E3/uL
  LYMPHOCYTE: 91.33%
  MEAN CORPUSCULAR HEMOGLOBIN: 25.37 pg
  MEAN CORPUSCULAR HEMOGLOBIN CONCENTRATION: 39.93 G/DL
  MEAN CORPUSCULAR VOLUME: 63.43 fL
  MONOCYTE: 1%
  NEUTROPHIL: 7.67%
  NUCLEATED RED BLOOD CELLS: 0.67 /100WBC
  PLATELET COUNT: 1322.33 x10E3/uL
  ALANINE AMINOTRANSFERASE: 47 u/L
  ALBUMIN: 4.07 G/DL
  ALKALINE PHOSPHATASE: 370.67 u/L
  ASPARTATE AMINOTRANSFERASE: 94 u/L
  BLOOD UREA NITROGEN: 15.67 mg/dL
  CARBON DIOXIDE: 25.67 mmol/L
  CHLORIDE: 102.67 MEQ/L
  CHOLESTEROL: 70.33 mg/dL
  CREATINE PHOSPHOKINASE: 679.33 u/L
  CREATININE: 0.14 mg/dL
  GLUCOSE: 153.67 mg/dL
  LACTATE DEHYDROGENASE: 404.33 u/L
  LIPASE: 9 u/L
  PHOSPHORUS: 13.8 mg/dL
  POTASSIUM: 7.04 MEQ/L
  SODIUM: 146.43 MEQ/L
  TOTAL BILIRUBIN: 0.23 mg/dL
  TOTAL PROTEIN: 5.67 G/DL
  URIC ACID: 1.7 mg/dL
[2]
  ABSOLUTE BASOPHIL: 0 CELLS/uL
  ABSOLUTE EOSINOPHIL: 43.33 CELLS/uL
  ABSOLUTE LYMPHOCYTE: 13938.33 CELLS/uL
  ABSOLUTE MONOCYTE: 59 CELLS/uL
  ABSOLUTE SEGMENTED NEUTROPHIL: 859.33 CELLS/uL
  BASOPHIL: 0%
  EOSINOPHIL: 0.33%
  ERYTHROCYTE COUNT: 5.27 x10E6/uL
  HEMATOCRIT: 34.2%
  HEMOGLOBIN: 13.7 G/DL
  LEUKOCYTE COUNT: 14.9 x10E3/uL
  LYMPHOCYTE: 93.33%
  MEAN CORPUSCULAR HEMOGLOBIN: 26.07 pg
  MEAN CORPUSCULAR HEMOGLOBIN CONCENTRATION: 40.07 G/DL
  MEAN CORPUSCULAR VOLUME: 65.03 fL
  MONOCYTE: 0.33%
  NEUTROPHIL: 6%
  NUCLEATED RED BLOOD CELLS: 0.33 /100WBC
  PLATELET COUNT: 1411.33 x10E3/uL
  ALANINE AMINOTRANSFERASE: 54.67 u/L
  ALBUMIN: 4.17 G/DL
  ALKALINE PHOSPHATASE: 396 u/L
  ASPARTATE AMINOTRANSFERASE: 114.33 u/L
  BLOOD UREA NITROGEN: 17.67 mg/dL
  CARBON DIOXIDE: 26 mmol/L
  CHLORIDE: 102 MEQ/L
  CHOLESTEROL: 60.67 mg/dL
  CREATINE PHOSPHOKINASE: 690.67 u/L
  CREATININE: 0.13 mg/dL
  GLUCOSE: 144 mg/dL
  LACTATE DEHYDROGENASE: 666.67 u/L
  LIPASE: 9 u/L
  PHOSPHORUS: 14.27 mg/dL
  POTASSIUM: 6.77 MEQ/L
  SODIUM: 143.77 MEQ/L
  TOTAL BILIRUBIN: 0.2 mg/dL
  TOTAL PROTEIN: 5.8 G/DL
  URIC ACID: 1.57 mg/dL
[3]
  ABSOLUTE BASOPHIL: 0 CELLS/uL
  ABSOLUTE EOSINOPHIL: 0 CELLS/uL
  ABSOLUTE LYMPHOCYTE: 16363.67 CELLS/uL
  ABSOLUTE MONOCYTE: 197 CELLS/uL
  ABSOLUTE SEGMENTED NEUTROPHIL: 1639.33 CELLS/uL
  BASOPHIL: 0%
  EOSINOPHIL: 0%
  ERYTHROCYTE COUNT: 5.69 x10E6/uL
  HEMATOCRIT: 35.37%
  HEMOGLOBIN: 14 G/DL
  LEUKOCYTE COUNT: 18.2 x10E3/uL
  LYMPHOCYTE: 90.33%
  MEAN CORPUSCULAR HEMOGLOBIN: 24.67 pg
  MEAN CORPUSCULAR HEMOGLOBIN CONCENTRATION: 39.57 G/DL
  MEAN CORPUSCULAR VOLUME: 62.3 fL
  MONOCYTE: 1%
  NEUTROPHIL: 8.67%
  NUCLEATED RED BLOOD CELLS: 0.33 /100WBC
  PLATELET COUNT: 1283.67 x10E3/uL
  ALANINE AMINOTRANSFERASE: 51.67 u/L
  ALBUMIN: 4.03 G/DL
  ALKALINE PHOSPHATASE: 372.67 u/L
  ASPARTATE AMINOTRANSFERASE: 89 u/L
  BLOOD UREA NITROGEN: 17 mg/dL
  CARBON DIOXIDE: 29 mmol/L
  CHLORIDE: 98.67 MEQ/L
  CHOLESTEROL: 105.67 mg/dL
  CREATINE PHOSPHOKINASE: 255 u/L
  CREATININE: 0.16 mg/dL
  GLUCOSE: 134.33 mg/dL
  LACTATE DEHYDROGENASE: 182.67 u/L
  LIPASE: 11 u/L
  PHOSPHORUS: 12.2 mg/dL
  POTASSIUM: 7.39 MEQ/L
  SODIUM: 142.4 MEQ/L
  TOTAL BILIRUBIN: 0.23 mg/dL
  TOTAL PROTEIN: 5.67 G/DL
  URIC ACID: 1.67 mg/dL
[4]
  ABSOLUTE BASOPHIL: 0 CELLS/uL
  ABSOLUTE EOSINOPHIL: 57.33 CELLS/uL
  ABSOLUTE LYMPHOCYTE: 9481.67 CELLS/uL
  ABSOLUTE MONOCYTE: 24 CELLS/uL
  ABSOLUTE SEGMENTED NEUTROPHIL: 670.33 CELLS/uL
  BASOPHIL: 0%
  EOSINOPHIL: 0.33%
  ERYTHROCYTE COUNT: 5.57 x10E6/uL
  HEMATOCRIT: 33.33%
  HEMOGLOBIN: 13.7 G/DL
  LEUKOCYTE COUNT: 10.23 x10E3/uL
  LYMPHOCYTE: 91.67%
  MEAN CORPUSCULAR HEMOGLOBIN: 24.57 pg
  MEAN CORPUSCULAR HEMOGLOBIN CONCENTRATION: 41.13 G/DL
  MEAN CORPUSCULAR VOLUME: 59.83 fL
  MONOCYTE: 0.33%
  NEUTROPHIL: 7.67%
  NUCLEATED RED BLOOD CELLS: 0 /100WBC
  PLATELET COUNT: 1302.33 x10E3/uL
  ALANINE AMINOTRANSFERASE: 40.33 u/L
  ALBUMIN: 4.33 G/DL
  ALKALINE PHOSPHATASE: 318 u/L
  ASPARTATE AMINOTRANSFERASE: 84 u/L
  BLOOD UREA NITROGEN: 14.67 mg/dL
  CARBON DIOXIDE: 27 mmol/L
  CHLORIDE: 102.5 MEQ/L
  CHOLESTEROL: 129.33 mg/dL
  CREATINE PHOSPHOKINASE: 241.33 u/L
  CREATININE: 0.19 mg/dL
  GLUCOSE: 122.33 mg/dL
  LACTATE DEHYDROGENASE: 148 u/L
  LIPASE: 11.67 u/L
  PHOSPHORUS: 9.87 mg/dL
  POTASSIUM: 5.71 MEQ/L
  SODIUM: 145.65 MEQ/L
  TOTAL BILIRUBIN: 0.27 mg/dL
  TOTAL PROTEIN: 6.13 G/DL
  URIC ACID: 0.47 mg/dL

Source: ChEMBL document CHEMBL3885881, “DrugMatrix”
